Laboratory results published in patent US8455440B2, “Combination anticoagulant therapy with a compound that acts as a factor Xa inhibitor” (Millennium Pharmaceuticals, Inc., priority 2007, dated 2013).

Legend:
human whole blood = test: Real time perfusion chamber: whole blood perfused over collagen and tissue factor coated surface; assay type: cell-based; details: shear rate 300 s^−1, five donors
Procedure: After the perfusion, the thrombotic activity was quantified by measurement of labeled fibrin produced as a result of fibrinogen cleavage during the activation of platelets and the blood coagulation system. For this series of experiments in five healthy human volunteers, blood was obtained by venipuncture and treated with 2.4 μM eptifibatide. The dose of eptifibatide corresponds to the plasma concentration attained by therapeutic concentrations of the GPIIb/IIIa inhibitor.

[1] = tested on: systolic and diastolic blood pressure; test: Telemetry blood pressure in conscious beagle dogs, three way crossover; assay type: in vivo
Procedure: The study design was a three way crossover with one week between doses to ensure complete elimination of residual agents from the dogs' circulatory system. […] Data acquisition and analysis was performed using LDS Life Science Suite Ponemah P3 plus V 4.20 software with results reported as 10 minute averages for each animal.
AUC was derived from the systolic and diastolic baseline. […] Negative values represent a decrease in blood pressure relative to the baseline value.

[2] = Dog # 1, oral, Compound A 3 mg/kg, verapamil 10 mg/kg
[3] = Dog # 2, oral, Compound A 3 mg/kg, verapamil 10 mg/kg
[4] = Dog # 3, oral, Compound A 3 mg/kg, verapamil 10 mg/kg
[5] = three dogs, oral, Compound A 3 mg/kg, verapamil 10 mg/kg

`COc1ccc(NC(=O)c2ccc(C(=N)N(C)C)cc2)c(C(=O)Nc2ccc(Cl)cn2)c1` [Compound A, [2-({4-[(dimethylamino)iminomethyl]phenyl}carbonylamino)-5-methoxyphenyl]-N-(5-chloro(2-pyridyl))carboxamide] was tested, and the “Mean Fluorescence” value (human whole blood; 10 nM Compound A + 2.4 μM eptifibatide) was 107.7, the “Mean Fluorescence” value (human whole blood; 25 nM Compound A + 2.4 μM eptifibatide) was 85.0 and the “Mean Fluorescence” value (human whole blood; 50 nM Compound A + 2.4 μM eptifibatide) was 64.5. The “Mean Fluorescence” value (human whole blood; 75 nM Compound A + 2.4 μM eptifibatide) was 34.7, the “Mean Fluorescence” value (human whole blood; 100 nM Compound A + 2.4 μM eptifibatide) was 33.0 and the “diastolic blood pressure (DBP) compared to pre-dose values” ([1]; Compound A 3 mg/kg as a single agent, oral) was “no statistical differences”. The “Lowest Diastolic Blood Pressure Post-Dosing” value [1, 2] was 92.57 mmHg, the “Lowest Systolic Blood Pressure Post-Dosing” value [1, 2] was 150.32 mmHg and the “Lowest Diastolic Blood Pressure Post-Dosing” value [1, 3] was 83.73 mmHg. For the same compound, the “Lowest Systolic Blood Pressure Post-Dosing” value [1, 3] was 121.08 mmHg, the “Lowest Diastolic Blood Pressure Post-Dosing” value [1, 4] was 80.52 mmHg and the “Lowest Systolic Blood Pressure Post-Dosing” value [1, 4] was 101.93 mmHg. The “Mean Area Under the Curve for Systolic Pressure (AUCP), Mean ± S.D.” value ([1]; following verapamil or placebo administration ([…]), relative to baseline) was 782.7 ± 1297.8 mmHg * min, the “measures of blood pressure upon coadministration with verapamil” value ([1]; telemeterized dogs) was “did not change the measures of blood pressure” and the “Lowest Diastolic Blood Pressure Post-Dosing, Mean ± S.D.” value [1, 5] was 85.60 ± 6.24 mmHg. The “Lowest Systolic Blood Pressure Post-Dosing, Mean ± S.D.” value [1, 5] was 124.44 ± 24.37 mmHg.
